Measurements taken from patent US4418192A, “Anthracyclinone trisaccharide compounds” (priority 1981, dated 1983).
Values after ≈ are worked out from the molar mass of the structure shown. Read-outs that look alike come from different tables or passages of the source.

Columns and labels:
[1] = tested on: L 1210 leukemia cells; test: Inhibition of growth of L 1210 leukemia cells in culture; type: cell-based; conditions: Mus musculus, L1210, 48 h, read-out: IC50 Cell growth
Experimental: L 1210 culture cells (5×10^4 cells/ml; final cell concentration) were inoculated to RPMI 1640 medium (Roswell Park Memorial Institute 1640 medium) containing 20% calf serum and then one of the anthracyclinone glycosides listed in Table 4 was added to make a final concentration of 0.1-5 μg/ml. After incubation at 37° C. for 2 days in a CO2 incubator, the number of cells was counted. Based on these counts, the 50% inhibitory concentration (IC50) of each test compound on the growth of L 1210 leukemia cells was calculated relative to the control test.

[2] = tested on: RNA synthesis in L 1210 cells; test: Inhibition of RNA synthesis in L 1210 cells (radioactive precursor incorporation); type: cell-based; conditions: Mus musculus
Experimental: (§1) For measurement of IC50 on the synthesis of nucleic acids, 5×10^5 L 1210 cells/ml were pre-cultured at 37° C. for 1-2 hours in RPMI 1640 medium containing 10% calf serum in a CO2 incubator. One of the anthracyclinone glycosides listed in Table 4 was added and incubated for a further 15 minutes. Then 0.05 μCi/ml of ^14 C-uridine or ^14 C-thymidine was added and incubated for a further 60 minutes. At the end of incorporation of the radioactive compound, 10% trichloroacetic acid was poured into the cell suspension for termination of the reaction as well as forced precipitation. The acid-insoluble fraction was collected, rinsed three times with 5% trichloroacetic acid and then dissolved in formic acid for measurement of radioactivity. Based on the radioactivities of the test and control runs, IC50 was calculated.

[3] = tested on: L 1210 leukemia; test: Antitumor activity: prolongation of survival time of CDF1 mice after intraperitoneal transplantation of L 1210 leukemia cells; type: in vivo; conditions: Mus musculus, L1210, ip, 720 h, read-out: Prolongation rate of the survival time (T/C)
Experimental: After intraperitoneal transplantation of L 1210 leukemia cells (1×10^5 cells/mouse), 0.25 ml/animal of solutions of one of the anthracyclinone glycosides (HCl salts) of the present invention in physiological saline was intraperitoneally injected to CDF1 mice every day for 9 days.

[4] = tested on: DNA synthesis in L 1210 cells; test: Inhibition of DNA synthesis in L 1210 cells (radioactive precursor incorporation); type: cell-based; conditions: Mus musculus
Experimental: as §1

[5] = in words; U.S. Pat. No. 3,988,315 and Jap. P. No. 864,851; cited from earlier work
[6] = L1210, read-out: IC50 RNA synthesis
[7] = L1210, read-out: IC50 DNA synthesis
[8] = L 1210 cells, RPMI 1640 with 20% calf serum, 37° C., 2 days
[9] = L1210, L 1210 cells, 15 min pre-incubation, 60 min with radioactive precursor (^14 C-uridine or ^14 C-thymidine), read-out: IC50 RNA synthesis
[10] = L1210, L 1210 cells, 15 min pre-incubation, 60 min with radioactive precursor (^14 C-uridine or ^14 C-thymidine), read-out: IC50 DNA synthesis

Compound	response vs control in vivo at 2.5 mg/kg [3] [%]	response vs control in vivo at 5 mg/kg [3] [%]	IC50 [1, 8] [µg/mL]	IC50 [2, 9] [µg/mL]	IC50 [4, 10] [µg/mL]	response vs control in vivo at 1.25 mg/kg [3] [%]	further results
CC[C@@]1(O)C[C@H](O[C@H]2C[C@H](N(C)C)[C@H](O[C@H]3C[C@H](OC(C)=O)[C@H](O[C@H]4CCC(=O)[C@H](C)O4)[C@H](C)O3)[C@H](C)O2)c2c(cc3c(c2O)C(=O)c2c(O)cccc2C3=O)[C@H]1C(=O)OC [3"-O--acetyl AKN--RDC]	114	168	–	–	–	–	IC50 [1]: 0.06 µg/mL (≈ 0.0703 µM); IC50 [2, 6]: 0.1 µg/mL (≈ 0.117 µM); response vs control in vivo at 7.5 mg/kg [3]: 186%; response vs control in vivo at 10 mg/kg [3]: 180%; IC50 [4, 7]: 1.3 µg/mL (≈ 1.52 µM)
COc1cccc2c1C(=O)c1c(O)c3c(c(O)c1C2=O)C[C@@](O)(C(=O)CO)C[C@@H]3O[C@H]1C[C@H](N(C)C)[C@H](O[C@H]2C[C@H](OC(C)=O)[C@H](O[C@H]3CCC(=O)[C@H](C)O3)[C@H](C)O2)[C@H](C)O1 [3"-O--acetyl AMN--RDC]	–	–	< 0.01	0.012 (≈ 0.014 µM)	0.32 (≈ 0.374 µM)	–	response vs control in vivo at 0.32 mg/kg ([3]; 0.32 mg/kg/day, i.p. every day for 9 days, HCl salts, L 1210 i.p. in CDF1 mice, control = 100): 144%; response vs control in vivo at 0.63 mg/kg ([3]; 0.63 mg/kg/day, i.p. every day for 9 days, HCl salts, L 1210 i.p. in CDF1 mice, control = 100): 165%; response vs control in vivo at 1.25 mg/kg ([3]; 1.25 mg/kg/day, i.p. every day for 9 days, HCl salts, L 1210 i.p. in CDF1 mice, control = 100): 140%; response vs control in vivo at 2.5 mg/kg ([3]; 2.5 mg/kg/day, i.p. every day for 9 days, HCl salts, L 1210 i.p. in CDF1 mice, control = 100): 96%
CC(=O)O[C@H]1C[C@H](O[C@@H]2[C@H](C)O[C@@H](O[C@H]3C[C@](O)(C(C)=O)Cc4c(O)c5c(c(O)c43)C(=O)c3c(O)cccc3C5=O)C[C@@H]2N(C)C)O[C@@H](C)[C@H]1O[C@H]1CCC(=O)[C@H](C)O1 [3"-O--acetyl CMN--RDC]	159	208	< 0.01	0.04 (≈ 0.0484 µM)	0.36 (≈ 0.436 µM)	124	response vs control in vivo at 7.5 mg/kg [3]: 214%; response vs control in vivo at 10 mg/kg [3]: 165%
COc1cccc2c1C(=O)c1c(O)c3c(c(O)c1C2=O)C[C@@](O)(C(C)=O)C[C@@H]3O[C@H]1C[C@H](N(C)C)[C@H](O[C@H]2C[C@H](OC(C)=O)[C@H](O[C@H]3CCC(=O)[C@H](C)O3)[C@H](C)O2)[C@H](C)O1 [3"-O--acetyl DMN--RDC]	180	210	< 0.01	0.02 (≈ 0.0238 µM)	0.3 (≈ 0.357 µM)	144	response vs control in vivo at 0.63 mg/kg [3]: 114%; response vs control in vivo at 7.5 mg/kg [3]: 164%
COc1cccc2c1C(=O)c1c(O)c3c(c(O)c1C2=O)C[C@@](O)(C(=O)COC(C)=O)C[C@@H]3O[C@H]1C[C@H](N(C)C)[C@H](O[C@H]2C[C@H](OC(C)=O)[C@H](O[C@H]3CCC(=O)[C@H](C)O3)[C@H](C)O2)[C@H](C)O1 [14,3"-O--diacetyl AMN--RDC]	–	–	–	–	–	–	IC50 [1]: < 0.01 µg/mL; IC50 [2, 6]: 0.014 µg/mL (≈ 0.0156 µM); IC50 [4, 7]: 0.5 µg/mL (≈ 0.557 µM)
COc1cccc2c1C(=O)c1c(O)c3c(c(O)c1C2=O)C[C@@](O)(C(=O)COC(=O)Cc1ccccc1)C[C@@H]3O[C@H]1C[C@H](N(C)C)[C@H](O[C@H]2C[C@H](OC(C)=O)[C@H](O[C@H]3CCC(=O)[C@H](C)O3)[C@H](C)O2)[C@H](C)O1 [14-O--phenylacetyl-3"-O--acetyl AMN--RDC]	–	–	0.03 (≈ 0.0308 µM)	0.15 (≈ 0.154 µM)	4 (≈ 4.11 µM)	–	–
COc1cccc2c1C(=O)c1c(O)c3c(c(O)c1C2=O)C[C@@](O)(C(=O)CO)C[C@@H]3O[C@H]1C[C@H](N(C)C)[C@H](O[C@H]2C[C@H](O)[C@H](O[C@H]3CCC(=O)[C@H](C)O3)[C@H](C)O2)[C@H](C)O1 [AMN--RDC]	145	130	< 0.01	0.011 (≈ 0.0135 µM)	0.15 (≈ 0.184 µM)	158	response vs control in vivo at 0.32 mg/kg [3]: 114%; response vs control in vivo at 0.63 mg/kg [3]: 142%
CC[C@@]1(O)C[C@H](O[C@H]2C[C@H](N(C)C)[C@H](O[C@H]3C[C@H](O)[C@H](O[C@H]4CCC(=O)[C@H](C)O4)[C@H](C)O3)[C@H](C)O2)c2c(cc3c(c2O)C(=O)c2c(O)cccc2C3=O)[C@H]1C(=O)OC [Aclacinomycin A, reference compound]	–	–	0.03 (≈ 0.037 µM)	0.085 (≈ 0.105 µM)	0.65 (≈ 0.801 µM)	–	cardio-toxicity [5]: less cardio-toxic
CC(=O)[C@]1(O)Cc2c(O)c3c(c(O)c2[C@@H](O[C@H]2C[C@H](N(C)C)[C@H](O[C@H]4C[C@H](O)[C@H](O[C@H]5CCC(=O)[C@H](C)O5)[C@H](C)O4)[C@H](C)O2)C1)C(=O)c1c(O)cccc1C3=O [CMN--RDC]	160	180	< 0.01	0.035 (≈ 0.0447 µM)	0.19 (≈ 0.242 µM)	132	response vs control in vivo at 7.5 mg/kg [3]: 145%
COc1cccc2c1C(=O)c1c(O)c3c(c(O)c1C2=O)C[C@@](O)(C(C)=O)C[C@@H]3O[C@H]1C[C@H](N)[C@H](O[C@H]2C[C@H](O)[C@H](O[C@H]3CCC(=O)[C@H](C)O3)[C@H](C)O2)[C@H](C)O1 [DMN--DaDC]	–	–	0.09 (≈ 0.117 µM)	0.165 (≈ 0.214 µM)	1.15 (≈ 1.49 µM)	–	–
CN[C@H]1C[C@H](O[C@H]2C[C@](O)(C(C)=O)Cc3c(O)c4c(c(O)c32)C(=O)c2c(OC)cccc2C4=O)O[C@@H](C)[C@H]1O[C@H]1C[C@H](O)[C@H](O[C@H]2CCC(=O)[C@H](C)O2)[C@H](C)O1 [DMN--DmDC]	–	–	–	–	–	–	IC50 [1]: 0.023 µg/mL (≈ 0.0293 µM); IC50 [2, 6]: 0.065 µg/mL (≈ 0.0829 µM); IC50 [4, 7]: 0.62 µg/mL (≈ 0.791 µM)
COc1cccc2c1C(=O)c1c(O)c3c(c(O)c1C2=O)C[C@@](O)(C(C)=O)C[C@@H]3O[C@H]1C[C@H](N(C)C)[C@H](O[C@H]2C[C@H](O)[C@H](O[C@H]3CCC(=O)[C@H](C)O3)[C@H](C)O2)[C@H](C)O1 [DMN--RDC]	187	126	< 0.01	0.017 (≈ 0.0213 µM)	0.17 (≈ 0.213 µM)	184	response vs control in vivo at 0.32 mg/kg [3]: 126%; response vs control in vivo at 0.63 mg/kg [3]: 135%
COc1cccc2c1C(=O)c1c(O)c3c(c(O)c1C2=O)C[C@@](O)(C(C)=O)C[C@@H]3O[C@H]1C[C@H](N(C)C)[C@H](O[C@H]2C[C@H](O)[C@H](O)[C@H](C)O2)[C@H](C)O1 [DMN--RD]	165	120	< 0.01	0.04 (≈ 0.0583 µM)	0.28 (≈ 0.408 µM)	172	response vs control in vivo at 0.32 mg/kg [3]: 114%; response vs control in vivo at 0.63 mg/kg [3]: 144%
COc1cccc2c1C(=O)c1c(O)c3c(c(O)c1C2=O)C[C@@](O)(C(C)=O)C[C@@H]3O[C@H]1C[C@H](N)[C@H](O)[C@H](C)O1 [Daunomycin, reference compound]	–	–	0.036 (≈ 0.0682 µM)	0.18 (≈ 0.341 µM)	0.3 (≈ 0.569 µM)	–	–
